In patent USRE47302E1 (ONYX THERAPEUTICS INC., priority 2013, dated 2019) one finds IC50 and solubility data, which are given here for 15 molecules.

The target in series [1] is human constitutive 20S proteasome (c20S) (Homo sapiens, UniProt P28074). Nature of the series: 20S proteasome assay, chymotrypsin-like activity (succinyl-Leu-Leu-Val-Tyr-AMC), c20S. The format is biochemical. As to conditions: LLVY substrate, 1 h continuous. The text has this:
(§1) Assay buffer consisted of TE buffer [20 mmol/L Tris (pH 8.0), 0.5 mmol/L EDTA] with (20S) or without (cell lysate) 0.03% SDS. Reactions were initiated by enzyme or lysate addition and monitored for AMC product formation at 27jC with a plate-based spectofluorometer (Tecan).

In series [2] the target is human 20S immunoproteasome (i20S) (Homo sapiens, UniProt P28062). Nature of the series: 20S proteasome assay, chymotrypsin-like activity (succinyl-Leu-Leu-Val-Tyr-AMC), i20S. The format is biochemical.
Description: as §1

The next series can be described thus: Solubility pH 7. The conditions noted are these: pH 7, aqueous buffer.
Series [3] addresses T1, immunoproteasome subunit LMP7 (Homo sapiens, UniProt P28062).
T1 construct: Lysate from the human acute lymphoblastic leukemia cell line, MOLT-4; endogenous in cells; host or cells: MOLT-4
Nature of the series: Proteasome active-site ELISA (ProCISE), LMP7, MOLT-4 lysate. The format is biochemical. As to conditions: read-out: ProCISE LMP7 MOLT4 lysate Hu 1 h CONT: IC50, 1 h continuous treatment, 25° C. The gist of the method: (§2)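 MOLT-4 cell lysate treated 1 h at 25 °C with compound; probe-bound subunits denatured, pulled down on streptavidin beads and detected with subunit-specific antibodies plus HRP chemiluminescence.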

For series [4], the target named is T2, proteasome subunit β5 (beta5) (Homo sapiens, UniProt P28074).
T2 construct: Lysate from the human acute lymphoblastic leukemia cell line, MOLT-4; endogenous in cells; host or cells: MOLT-4
Nature of the series: Proteasome active-site ELISA (ProCISE), beta5, MOLT-4 lysate. The format is biochemical. The conditions noted are these: read-out: ProCISE beta5 MOLT4 lysate Hu 1 h CONT: IC50; MOLT4 lysate, human, 1 h continuous treatment, 25° C. The gist of the method:
as §2
In general terms: An ELISA detects its analyte on a solid surface through an enzyme-linked reagent.

[5] abbreviates: read-out: LLVY i20S Hu 1 h CONT: IC50, LLVY substrate, 1 h continuous.

Values after ≈ are worked out from the molar mass of the structure shown. Like-named read-outs stand apart in the source and are kept apart here. Some results are limits rather than exact numbers.

The IC50 is the midpoint of a concentration-inhibition curve. Broadly, the solubility is the concentration that dissolves in the medium under given conditions. Low readings indicate a poorly soluble substance, high ones a readily soluble substance.

On to `COc1ccc(C[C@H](NC(=O)[C@H](C)NC(=O)CN2CCOCC2)C(=O)N[C@@H](C[C@H]2CC[C@@H](O)CC2)C(=O)[C@@]2(C)CO2)cc1` [Compound C-1001, (S)-N-((S)-3-((1s,4R)-4-hydroxycyclohexyl)-1-((R)-2-methyloxiran-2-yl)-1-oxopropan-2-yl)-3-(4-methoxyphenyl)-2-((S)-2-(2-morpholinoacetamido)propanamido)propanamide], for which the IC50 in series [1] is more than 10000 nM; in series [2] (LLVY substrate, 1 h continuous), 3230 nM. The molecule also gave a solubility in “Solubility pH 7” of 2640 µg/mL (≈ 4.37 mM).
On the same counts, the results for `COc1ccc(C[C@H](NC(=O)[C@H](C)NC(=O)CN2CCOCC2)C(=O)N[C@@H](CC2CCCC2)C(=O)[C@@]2(C)CO2)c(F)c1` [Compound C-1008, (S)-N-((S)-3-cyclopentyl-1-((R)-2-methyloxiran-2-yl)-1-oxopropan-2-yl)-3-(2-fluoro-4-methoxyphenyl)-2-((S)-2-(2-morpholinoacetamido)propanamido)propanamide] are 3380 nM, 2500 nM and 1430 µg/mL (≈ 2.42 mM).
On the same counts, the results for `C[C@H](NC(=O)CN1CCOCC1)C(=O)N[C@@H](Cc1ccco1)C(=O)N[C@@H](CC1CCCC1)C(=O)[C@@]1(C)CO1` [Compound C-1013, (S)-N-((S)-3-cyclopentyl-1-((R)-2-methyloxiran-2-yl)-1-oxopropan-2-yl)-3-(furan-2-yl)-2-((S)-2-(2-morpholinoacetamido)propanamido)propanamide] are 548 nM, 445 nM and 911 µg/mL (≈ 1.71 mM).
For `C[C@H](NC(=O)CN1CCOCC1)C(=O)N[C@@H](Cc1c[nH]c2ccccc12)C(=O)N[C@@H](CC1CCCC1)C(=O)[C@@]1(C)CO1` [Compound C-1014, (S)-N-((S)-3-cyclopentyl-1-((R)-2-methyloxiran-2-yl)-1-oxopropan-2-yl)-3-(1H-indol-3-yl)-2-((S)-2-(2-morpholinoacetamido)propanamido)propanamide] the same measures were 806 nM, 289 nM and 1020 µg/mL (≈ 1.75 mM).
As to `COc1ccc([C@H](O)[C@H](NC(=O)[C@H](C)NC(=O)CN2CCOCC2)C(=O)N[C@@H](CC2CCCC2)C(=O)[C@@]2(C)CO2)cc1` [Compound C-1023, (2S,3S)-N-((S)-3-cyclopentyl-1-((R)-2-methyloxiran-2-yl)-1-oxopropan-2-yl)-3-hydroxy-3-(4-methoxyphenyl)-2-((S)-2-(2-morpholinoacetamido)propanamido)propanamide], the IC50 in series [1] worked out at 1880 nM; in series [2] (LLVY substrate, 1 h continuous), 322 nM. Also, the solubility in “Solubility pH 7” came out at 3870 µg/mL (≈ 6.57 mM).
`C[C@H](NC(=O)CN1CCOCC1)C(=O)N[C@@H](Cc1cccc(S(C)(=O)=O)c1)C(=O)N[C@@H](CC1CCCC1)C(=O)[C@@]1(C)CO1` [Compound C-1024, (S)-N-((S)-3-cyclopentyl-1-((R)-2-methyloxiran-2-yl)-1-oxopropan-2-yl)-3-(3-(methylsulfonyl)phenyl)-2-((S)-2-(2-morpholinoacetamido)propanamido)propanamide]: the half-maximal inhibitory concentration (IC50) in series [1] was found to be 715 nM; in series [2] (LLVY substrate, 1 h continuous) it was 707 nM. This molecule also came in with a solubility in “Solubility pH 7” of 4760 µg/mL (≈ 7.67 mM).
For the molecule `COc1ccc(C[C@H](NC(=O)[C@@H](C)NC(=O)[C@@H]2CCCO2)C(=O)N[C@@H](CC2CCCC2)C(=O)[C@@]2(C)CO2)cc1` [Compound C-1031, (S)-N-((R)-1-(((S)-1-(((S)-3-cyclopentyl-1-((R)-2-methyloxiran-2-yl)-1-oxopropan-2-yl)amino)-3-(4-methoxyphenyl)-1-oxopropan-2-yl)amino)-1-oxopropan-2-yl)tetrahydrofuran-2-carboxamide], the 50% inhibitory concentration (IC50) in series [1] was more than 250000 nM; in series [2] (LLVY substrate, 1 h continuous), 2980 nM. For the same molecule, the solubility in “Solubility pH 7” amounted to 462 µg/mL (≈ 0.85 mM).
On the same counts, the results for `COc1ccc(C[C@H](NC(=O)[C@@H](C)NC(=O)[C@H]2CCCO2)C(=O)N[C@@H](CC2CCCC2)C(=O)[C@@]2(C)CO2)cc1` [Compound C-1032, (R)-N-((R)-1-(((S)-1-(((S)-3-cyclopentyl-1-((R)-2-methyloxiran-2-yl)-1-oxopropan-2-yl)amino)-3-(4-methoxyphenyl)-1-oxopropan-2-yl)amino)-1-oxopropan-2-yl)tetrahydrofuran-2-carboxamide] are 24800 nM, 436 nM and 251 µg/mL (≈ 0.462 mM).
For `COc1ccc(C[C@H](NC(=O)[C@H](C)NC(=O)CN2CCOCC2)C(=O)N[C@@H](C[C@@H]2CCC(F)(F)C2)C(=O)[C@@]2(C)CO2)cc1` [Compound C-1033, (S)-N-((S)-3-((S)-3,3-difluorocyclopentyl)-1-((R)-2-methyloxiran-2-yl)-1-oxopropan-2-yl)-3-(4-methoxyphenyl)-2-((S)-2-(2-morpholinoacetamido)propanamido)propanamide] the same measures were 121000 nM, 3100 nM and 3210 µg/mL (≈ 5.28 mM).
On the same counts, the results for `COc1ccc(C[C@H](NC(=O)[C@H](C)NC(=O)CN2CCOCC2)C(=O)N[C@@H](C[C@H]2CCC(F)(F)C2)C(=O)[C@@]2(C)CO2)cc1` [Compound C-1034, (S)-N-((S)-3-((R)-3,3-difluorocyclopentyl)-1-((R)-2-methyloxiran-2-yl)-1-oxopropan-2-yl)-3-(4-methoxyphenyl)-2-((S)-2-(2-morpholinoacetamido)propanamido)propanamide] are 25400 nM, 1050 nM and 2780 µg/mL (≈ 4.57 mM).
In the case of `COc1ccc(C[C@H](NC(=O)[C@@H](C)NC(=O)[C@@H]2CCOC2)C(=O)N[C@@H](CC2CCCC2)C(=O)[C@@]2(C)CO2)cc1` [Compound C-1036, (R)-N-((R)-1-(((S)-1-(((S)-3-cyclopentyl-1-((R)-2-methyloxiran-2-yl)-1-oxopropan-2-yl)amino)-3-(4-methoxyphenyl)-1-oxopropan-2-yl)amino)-1-oxopropan-2-yl)tetrahydrofuran-3-carboxamide], the IC50 was 16500 nM in series [1] and 480 nM in series [2] (LLVY substrate, 1 h continuous). In the series “Solubility pH 7”, the solubility came to 277 µg/mL (≈ 0.51 mM).
As for `COc1ccc(C[C@H](NC(=O)[C@H](C)NC(=O)CN2CCOCC2)C(=O)N[C@@H](Cc2ccc(C)cc2)C(=O)[C@@]2(C)CO2)cc1` [Compound C-1181], the figures for the IC50 in series [3], in series [2] (setting [5]) and in series [4] were 13.5 nM, 13.5 nM and 120 nM, respectively. In “Solubility pH 7”, the solubility was 938 µg/mL (≈ 1.58 mM).
For the molecule `COc1ccc(C[C@H](NC(=O)[C@@H](NC(=O)CN2CCOCC2)C2COC2)C(=O)N[C@@H](Cc2ccccc2)C(=O)[C@@]2(C)CO2)cc1` [Compound C-1183], the concentration for half-maximal inhibition (IC50) in series [3] was found to be 17.1 nM; in series [2] (setting [5]) it was 21.5 nM; in series [4] it was 101 nM. The molecule also showed a solubility in the series “Solubility pH 7” of 4540 µg/mL (≈ 7.29 mM).
On to `COc1ccc(C[C@H](NC(=O)[C@@H](NC(=O)CN2CCOCC2)C2(O)CC2)C(=O)N[C@@H](Cc2ccccc2)C(=O)[C@@]2(C)CO2)cc1` [Compound C-1184], for which the IC50 in series [3] turned out to be 19.5 nM; in series [2] (setting [5]), 10.5 nM; in series [4], 63.9 nM. The solubility in “Solubility pH 7” turned out to be 2730 µg/mL (≈ 4.39 mM).
For `C=CC(=O)NC[C@H](NC(=O)[C@H](C)NC(=O)CN1CCOCC1)C(=O)N[C@@H](Cc1ccccc1)C(=O)[C@@]1(C)CO1` [Compound C-1225] the same measures were 49.5 nM, 18.6 nM, 205 nM and 3450 µg/mL (≈ 6.34 mM).
